Measurements from patent publication US20090107495A1, “DEVICE FOR INHALATION OF MEDICINE” (NATIONAL INSTITUTE FOR MATERIALS SCIENCE, priority 2005, published 2009).

How the values were obtained:
Assay type in all cases: physicochemical
Solubility in ethanol = assay: Solubility in ethanol
[1] = Particle size of creatine adhered on PVP nano fiber, by scanning electron microscope; conditions: SEM, FIG. 1
Source text: A commercially available electrospinning apparatus (HSP-30K-2 manufactured by Nippon Stabilizer Industry Co., Ltd.) was used, voltage (direct current of 15 kV) was applied between (the distance being 20 cm) a nozzle and an aluminum foil (manufactured by Mitsubishi Aluminum Company, Ltd.) on which a cotton mat (manufactured by Asahi Kasei Corporation) is placed attached to a collector of the apparatus and a 10 wt % ethanolic solution of polyvinylpyrrolidone (PVP) was sprayed at ambient temperature from the nozzle onto the cotton mat to form a matrix comprising a nano fiber of PVP on the surface of the cotton mat. A fiber diameter of the nano fiber of PVP constituting the matrix was measured by using a scanning electron microscope (SEM JSM-5400 manufactured by JOEL Ltd.) and found to be from 300 to 700 nm. The cotton mat where a matrix comprising a nano fiber of PVP was formed on the surface was attached onto a filter of a commercially available spray-drying apparatus (Buchi Mini Spray Drier B-290 manufactured by Nihon BUCHI K.K.) and a 1 wt % aqueous solution of creatine was spray-dried onto the matrix (outlet temperature of the nozzle: 180° C.; aspirator speed: 35%; pump speed: 5%) to give a cotton mat where a matrix comprising a nano fiber of PVP in which creatine particles were adhered on the surface was formed on the surface. As will be apparent from FIG. 1, the particle size of creatine adhered on the surface of the nano fiber of PVP was about 2 μm at the largest and many of the particles were in a size of from 100 nm to smaller than 1 μm.

[2] = Exposure of the cotton mat to air stream similar to human inspiration, SEM picture after exposure
Procedure: The cotton mat where the matrix comprising the nano fiber of PVP in which creatine particles were adhered on the surface was formed on the surface was exposed for 1 minute in air stream having the similar degree as human inspiration (velocity is 5 L/minute). A picture of the cotton mat after exposure taken under a scanning electron microscope (the same one as mentioned already) is shown in FIG. 2.

[3] = spray-dried onto PVP nano fiber matrix on cotton mat

Row | solubility in ethanol (Solubility in ethanol) | particle size of creatine adhered on the surface of the nano fiber of PVP, at the largest ([1]; spray-dried from 1 wt % aqueous solution onto PVP nano fiber matrix on cotton mat) | particle size, many of the particles, lower limit [1, 3] [nm] | particle size, many of the particles, upper limit [1, 3] | stability of nano- to micron-size particles in air ([2]; adhered on PVP nano fiber matrix, no dispersing solvent) | detachment of particles adhered on the nano fiber of PVP ([2]; air stream 5 L/minute, 1 minute, SEM, FIG. 2) | SMILES
1 | hardly soluble |  |  |  |  |  | O=c1c2ccccc2[se]n1-c1ccccc1 [Ebselen, 2-phenyl-1,2-benzoisoselenazol-3-(2H)-one]
2 |  | about 2 μm | ≥ 100 | smaller than 1 μm | stably retained even in air | detached by air stream | CN(CC(=O)O)C(=N)N [creatine]
